Source: patent publication US4133805A, “Cyclic undecapeptides related to somatostatin and intermediates therefor” (American Home Products Corporation, priority 1975, dated 1979)

Assays:
Type in all cases: in vivo, Albino male rats
growth hormone = assay: Test Procedure II: arginine-stimulated plasma growth hormone in nembutal-treated rats; conditions: p = <0.01
Experimental: (§1) Albino male rats are arranged in three groups (nine rats/group) and injected i.p. with nembutal at 50 mg/kg. Fifteen minutes after the nembutal injection they are injected s.c. according to group with (a) test compound, typically 500-2000 μg/kg; (b) SRIF 200 μg/kg; or (c) physiological saline. Ten minutes later 0.5 ml. of arginine (300 mg/ml, pH 7.2) is injected into the heart. The rats are decapitated five minutes after receiving the arginine, and the blood is collected into Trasylol-EDTA. Appropriate aliquots are then assayed for growth hormone, glucagon and insulin. […] Comparisons between control and experimental values are statistically evaluated by the analysis of variants method and statistical significance (p) at 0.05 or lower is used as the index of activity.

insulin = assay: Test Procedure II: arginine-stimulated plasma insulin in nembutal-treated rats
Experimental: as §1

glucagon = assay: Test Procedure II: arginine-stimulated plasma glucagon in nembutal-treated rats
Experimental: as §1

`C[C@H](N)C(=O)NCC(=O)N[C@H]1CSSC[C@@H](C(=O)O)NC(=O)[C@H](CO)NC(=O)[C@H]([C@@H](C)O)NC(=O)[C@H](Cc2ccccc2)NC(=O)[C@H]([C@@H](C)O)NC(=O)[C@H](CCCCN)NC(=O)[C@H](Cc2c[nH]c3ccccc23)NC(=O)[C@H](Cc2ccccc2)NC(=O)[C@H](Cc2ccccc2)NC(=O)[C@H](CC(N)=O)NC(=O)[C@H](CCCCN)NC1=O` [SRIF, somatostatin] was tested, and the GH (growth hormone; 10 μg/kg s.c., control 543 ± 86) was 241 ± 15 ng/mL, the GH (growth hormone; 20 μg/kg s.c., control 619 ± 103) was 232 ± 87 ng/mL and the GH (growth hormone; 0.2 mg/kg s.c., control 287 ± 53) was 65 ± 16 ng/mL. It also gave an Insulin (insulin; 200 μg/kg s.c., control 167 ± 12, p = <0.01) of 117 ± 12 μ units/ml, an Insulin (insulin; 0.2 mg/kg s.c., control 151 ± 15, p = <0.05) of 111 ± 10 μ units/ml and a Glucagon (glucagon; 200 μg/kg s.c., control 62 ± 8, p = <0.01) of 13 ± 4 pg/mL. It also gave a Glucagon (glucagon; 0.2 mg/kg s.c., control 20 ± 1, p = <0.05) of 12 ± 3 pg/mL.
